Laboratory results taken from patent publication US11660301B2, “Combination of ATR kinase inhibitors with PARP inhibitors” (Bayer Pharma Aktiengesellschaft, priority 2017, dated 2023).
Marks after values point to notes of the source that are not given here.

Columns and labels:
HT-144 = assay: In vitro anti-proliferation (Cell Titre-Glo), HT-144; type: cell-based; settings: Homo sapiens; HT-144, melanoma; 96 hours of incubation; mono-treatment
Experimental: (§1) Tumor cells (Table 1) were propagated in a humidified 37° C. incubator in their respective growth medium supplemented 10% fetal calf serum. […] Test compounds were added to the wells using a Tecan-HP Digital Dispenser. After 96 hours of incubation cell viability was assessed with the Cell Titre-Glo Luminescent Cell Viability Assay (Promega).

[1] = tested on: human 22Rv1 prostate cancer xenograft; assay: 22Rv1 prostate cancer xenograft model; type: in vivo, mice
Experimental: (§2) The oral and intraperitoneal application volume was 10 ml/kg. The time interval between two applications per day was 6-7 h. […] Changes in the body weight were a measure of treatment-related toxicity (>10%=critical, stop of treatment until recovery, >20%=toxic, termination). The tumor area was detected by means of an electronic caliper gauge [length (mm)×width (mm)]. In vivo anti-tumor efficacy is presented as T/C ratio (Treatment/Control) calculated with tumor areas at study end by the formula [(tumor area of treatment group at day x)−(tumor area of treatment group at day before first treatment)]/[(tumor area control group at day x)−(tumor area of control group at day before first treatment)]. […] Statistical analysis was assessed using SigmaStat software. A one-way analysis of variance was performed and differences to the control were compared by a pair-wise comparison procedure (Dunn's method).

IGR-OV-1 = assay: In vitro anti-proliferation (Cell Titre-Glo), IGR-OV-1; type: cell-based; settings: Homo sapiens, IGROV-1; IGR-OV-1, ovary; 96 hours of incubation; mono-treatment
Experimental: as §1

NCI-H460 = assay: In vitro anti-proliferation (Cell Titre-Glo), NCI-H460; type: cell-based; settings: Homo sapiens; NCI-H460, lung; 96 hours of incubation; mono-treatment
Experimental: as §1

[2] = tested on: human MDA-MB-436 breast cancer xenograft; assay: MDA-MB-436 breast cancer xenograft model; type: in vivo, mice
Experimental: as §2

MDA-MB-436 = assay: In vitro anti-proliferation (Cell Titre-Glo), MDA-MB-436; type: cell-based; settings: Homo sapiens; MDA-MB-436, breast; 96 hours of incubation; mono-treatment
Experimental: as §1

- IC50 (HT-144): 23 µM
- IC50 (NCI-H460): 28 µM
- IC50 (MDA-MB-436): 6.5 µM
SMILES: O=C(c1cc(Cc2n[nH]c(=O)c3ccccc23)ccc1F)N1CCN(C(=O)C2CC2)CC1 [Compound B, Olaparib]
- anti-tumor efficacy ([1]; 22Rv1 prostate cancer model, result in words): no anti-tumor efficacy
- Max. weight loss (%) ([1]; body weight vs start of treatment, Compound A 20 mg/kg 2QD p.o. 3 on/4 off, Compound B 20 mg/kg QD i.p.): −3%
- T/C ([1]; tumor area at study end, male Fox Chase SCID mice, Compound A 20 mg/kg 2QD p.o. 3 on/4 off, Compound B 20 mg/kg QD i.p.): 1.18
- IC50 (IGR-OV-1): 22 µM
- anti-tumor efficacy ([2]; MDA-MB-436 human breast cancer model, result in words): good anti-tumor efficacy
- Max. weight loss (%) ([2]; body weight vs start of treatment, Compound A 20 mg/kg 2QD p.o. 3 on/4 off, Compound B 50 mg/kg QD i.p.): −3%
- T/C ([2]; tumor area at study end, NOD/Scid mice, Compound A 20 mg/kg 2QD p.o. 3 on/4 off, Compound B 50 mg/kg QD i.p.): 0.29^*
